Laboratory results as given in patent US20240423914A1, “AMIDE CONTAINING LIPIDS” (Acuitas Therapeutics, Inc., priority 2023, published 2024).

Test system: human IgG in mouse serum
Assay: Immunoglobulin G (IgG) mRNA in vivo evaluation using lipid nanoparticle compositions (human IgG ELISA of mouse serum)
Design: species or system CD-1/ICR mice
Conditions: lipid formulated as LNP (cationic lipid/DSPC/cholesterol/PEG lipid) with IgG mRNA, tail vein injection, mice, serum measured 24 hours after administration; for Serum IgG (ug/mL) @ 0.3 mg/kg: 0.3 mg mRNA/kg; for Serum IgG (ug/mL) @ 1.0 mg/kg: 1.0 mg mRNA/kg
Method: A lipid of Formula (I), DSPC, cholesterol and PEG-lipid of Formula (II) are solubilized in ethanol at a molar ratio of 50:10:38.5:1.5 or 47.5:10:40.7:1.8. Lipid nanoparticles (LNP) are prepared at a total lipid to mRNA weight ratio of approximately 10:1 to 40:1. Briefly, the mRNA is diluted to 0.2 mg/mL in 10 to 50 mM citrate buffer, pH 4 to 6 or 10 to 25 mM acetate buffer, pH 4 to 6. Syringe pumps are used to mix the ethanolic lipid solution with the mRNA aqueous solution at a ratio of about 1:5 to 1:3 (vol/vol) with total flow rates above 15 mL/min. The ethanol is then removed, and the external buffer replaced with PBS by dialysis. Finally, the lipid nanoparticles are filtered through a 0.2 μm pore sterile filter.
Studies are performed in 6-8-week-old CD-1/ICR mice (Charles River or Inotiv) according to guidelines established by an institutional animal care committee (ACC) and the Canadian Council on Animal Care (CCAC). Varying doses of mRNA-lipid nanoparticle are systemically administered by tail vein injection and animals euthanized at a specific time point (e.g., 24 hours) post-administration. The whole blood is collected, and the serum subsequentially separated by centrifuging the tubes of the whole blood at 2000×g for 10 minutes at 4° C. and stored at −80° C. until use for analysis.
For immunoglobulin G (IgG) ELISA (Life Diagnostics Human IgG ELISA kit), the serum samples are diluted at 100 to 20,000 fold with 1× diluent solution. 100 μL of diluted serum is dispensed into anti-human IgG coated 96-well plate in duplicate alongside human IgG standards and incubated in a plate shaker at 150 rpm at 25° C. for 45 minutes. The wells are washed 5 times with 1× wash solution using a plate washer (400 μL/well). 100 μL of HRP conjugate is added into each well and incubated in a plate shaker at the same condition above. The wells are washed 5 times again with 1× wash solution using a plate washer (400 μL/well). 100 μL of TMB reagent is added into each well and incubated in a plate shaker at the same condition above. The reaction is stopped by adding 100 μL of Stop solution to each well. The absorbance is read at 450 nm (A450) with a microplate reader. The amount of human IgG in mouse serum is determined by plotting A450 values for the assay standard against human IgG concentration.
Representative compounds of the disclosure shown in Table 2 were formulated using the following molar ratio: 50% cationic lipid/10% distearoylphosphatidylcholine (DSPC)/38.5% Cholesterol/1.5% PEG lipid 2-[2-(ω-methoxy(polyethyleneglycol2000)ethoxy]-N,N-ditetradecylacetamide) or 47.5% cationic lipid/10% DSPC/40.7% Cholesterol/1.8% PEG lipid. Relative activity was determined by measuring the amount of human IgG in mouse serum as described in Example 2. The activity was compared at a dose of 1.0 or 0.3 mg mRNA/kg and expressed as ng luciferase/g liver measured 4 hours after administration, as described in Example 1 or as μg IgG/mL serum measured 24 hours after administration, as described in Example 2. Compound numbers in Table 2 refer to the compound numbers of Table 1.

SMILES	Serum IgG (ug/mL) @ 0.3 mg/kg	Serum IgG (ug/mL) @ 1.0 mg/kg
CCCCCCCCCCN(CCCCCCCCCC)C(=O)CCCCCCCCC(CCCCCCCCC(=O)N(CCCCCCCCCC)CCCCCCCCCC)OC(=O)CCCN(C)C [Compound I-10, 1,19-bis(didecylamino)-1,19-dioxononadecan-10-yl 4-(dimethylamino)butanoate]	19.0 ± 3.3 µg/mL	
CCCCCCCCCCN(CCCCCCCCCC)C(=O)CCCCCCCN(CCCCCCCC(=O)N(CCCCCCCCCC)CCCCCCCCCC)C(=O)OCCN(C)C [Compound I-6, 2-(dimethylamino)ethyl bis(8-(didecylamino)-8-oxooctyl)carbamate]	20.5 ± 4.0 µg/mL	197.5 ± 39.3 µg/mL
CCCCCCCCCCN(CCCCCCCCCC)C(=O)CCCCCCCN(CCCCCCCC(=O)N(CCCCCCCCCC)CCCCCCCCCC)C(=O)OCCCN(C)C [Compound I-7, 3-(dimethylamino)propyl bis(8-(didecylamino)-8-oxooctyl)carbamate]	30.8 ± 7.5 µg/mL	
CCCCCCCCCCN(CCCCCCCCCC)C(=O)CCCCCCCCC(CCCCCCCCC(=O)N(CCCC)C(CCCCCCCC)CCCCCCCC)N(CCCCCCCCCC)C(=O)CCN(C)C (stereo not shown) [Compound I-17, N^1-butyl-N^19,N^19-didecyl-10-(n-decyl-3-(dimethylamino)propanamido)-N-(heptadecan-9-yl)nonadecanediamide]	10.1 ± 4.03 µg/mL	
CCCCCCCCCCN(CCCCCCCCCC)C(=O)CCCCCCCCC(CCCCCCCCC(=O)N(CCCCCCCCCC)CCCCCCCCCC)OC(=O)CCCCN(C)C [Compound I-9, 1,19-bis(didecylamino)-1,19-dioxononadecan-10-yl 5-(dimethylamino)pentanoate]	13.4 ± 7.5 µg/mL	59.5 ± 25.6 µg/mL
CCCCCCCCCCN(CCCCCCCCCC)C(=O)CCCCCC(CCCCCC(=O)N(CCCCCCCCCC)CCCCCCCCCC)OC(=O)CCCN(C)C [Compound I-18, 1,13-bis(didecylamino)-1,13-dioxotridecan-7-yl 4-(dimethylamino)butanoate]	18.0 ± 2.0 µg/mL	
CCCCCCCCCCN(CCCCCCCCN(CCCCCCCC(=O)N(CCCCCCCCCC)CCCCCCCCCC)C(=O)C(F)CCN(C)C)C(=O)CCCCCCCCC (stereo not shown) [Compound I-3, N-decyl-N-(8-(N-(8-(didecylamino)-8-oxooctyl)-4-(dimethylamino)-2-fluorobutanamido)octyl)decanamide]	16.2 ± 4.3 µg/mL	52.7 ± 8.4 µg/mL
CCCCCCCCCCCCN(CCCCCCCCCCN(CCCCCCCCCCN(CCCCCCCCCCCC)C(=O)CCCCCCC)C(=O)OCCCN1CCCC1)C(=O)CCCCCCC [Compound I-20, 3-(pyrrolidin-1-yl)propyl bis(10-(n-dodecyloctanamido)decyl)carbamate]	7.9 ± 3.6 µg/mL	
CCCCCCCCCCN(CCCCCCCCN(CCCCCCCC(=O)N(CCCCCCCCCC)CCCCCCCCCC)C(=O)CN(C)C)C(=O)CCCCCCCCC [Compound I-5, N-decyl-N-(8-(N-(8-(didecylamino)-8-oxooctyl)-2-(dimethylamino)acetamido)octyl)decanamide]	25.9 ± 11.8 µg/mL	73.4 ± 14.9 µg/mL
CCCCCCCCCCN(CCCCCCCCCC)C(=O)CCCCCCCCCN(CCCCCCCCCC(=O)N(CCCCCCCCCC)CCCCCCCCCC)C(=O)OCCCN(C)C [Compound I-8, 3-(dimethylamino)propyl bis(10-(didecylamino)-10-oxodecyl)carbamate]	10.6 ± 5.0 µg/mL	
CCCCCCCCCCN(CCCCCCCCCC)C(=O)CCCCCCCN(CCCCCCCC(=O)N(CCCCCCCCCC)CCCCCCCCCC)C(=O)C(F)CCN(C)C (stereo not shown) [Compound I-2, N,N-didecyl-8-(N-(8-(didecylamino)-8-oxooctyl)-4-(dimethylamino)-2-fluorobutanamido)octanamide]	23.2 ± 6.1 µg/mL	69.8 ± 18.2 µg/mL
CCCCCCCCCCN(CCCCCCCCCC)C(=O)CCCCCCCCC(CCCCCCCCC(=O)N(CCCCCCCCCC)CCCCCCCCCC)N(CCCCCCCCCC)C(=O)C(F)CCCN(C)C (stereo not shown) [Compound I-12, N^1,N^1,N^19,N^19-tetrakis(decyl)-10-(n-decyl-5-(dimethylamino)-2-fluoropentanamido)nonadecanediamide]	13.9 ± 4.7 µg/mL	
CCCCCCCCCCN(CCCCCCCCCC)C(=O)CCCCCCCN(CCCCCCCC(=O)N(CCCCCCCCCC)CCCCCCCCCC)C(=O)CN(C)C [Compound I-4, N,N-didecyl-8-(N-(8-(didecylamino)-8-oxooctyl)-2-(dimethylamino)acetamido)octanamide]	24.2 ± 4.5 µg/mL	
CCCCCCCCCCN(CCCCCCCCCC)C(=O)CCCCCCCCC(CCCCCCCCC(=O)N(CCCCCCCCCC)CCCCCCCCCC)N(CCCCCCCCCC)C(=O)CCN(C)C [Compound I-1, N^1,N^1,N^19,N^19-tetrakis(decyl)-10-(N-decyl-3-(dimethylamino)propanamido)nonadecanediamide]	18.5 ± 6.7 µg/mL	
